Columns and labels:
H-TconTS1 = tested on: T1, H-TconTS1; assay: HPAEC-PAD of […]'-sialyllactose formed, […] min, Michaelis-Menten fit; assay type: biochemical, Trypanosoma congolense; settings: two biological replicates, purified differently after EndoHf; sialic acid acceptor; donor fetuin (600 μM bound Neu5Ac); 10 mM potassium phosphate pH 7.4, 37 °C; EndoHf-treated hypoglycosylated enzyme
T1 construct: same polypeptide as P1 (SNAP and Strep tag kept, CHO Lec1 cells), but N-glycans partly removed with EndoHf (16 h), leaving single GlcNAc residues; hypoglycosylated

TconTS1 = tested on: T2, TconTS1; assay: as above; assay type: biochemical, Trypanosoma congolense; settings: two biological replicates; sialic acid acceptor; donor fetuin (600 μM bound Neu5Ac); 10 mM potassium phosphate pH 7.4, 37 °C; N-glycosylated enzyme
T2 construct: catalytic plus lectin-like domain; C3 protease site, C-terminal SNAP and Strep tag kept; secreted by CHO Lec1 cells; high-mannose N-glycans; mock-incubated 16 h at 37 °C

OC[C@H]1O[C@@H](O[C@H]2[C@H](O)[C@@H](O)C(O)O[C@@H]2CO)[C@H](O)[C@@H](O)[C@H]1O (some centres unmarked) [lactose]
KM (apparent) (H-TconTS1): 9.0 and 3.2 mM
KM (apparent) (TconTS1): 1.7 and 2.0 mM

— publication PMC9493392, “N-glycosylation modulates enzymatic activity of Trypanosoma congolense trans-sialidase” (The Journal of Biological Chemistry, 2022)
